According to patent publication US10675269B2, “Compositions comprising melatonin” (TRINUTRA LTD., priority 2016, dated 2020):

Columns and labels:
laboratory rats = assay: Open field spontaneous activity (mobility time), anxiolytic effect; type: in vivo, rat; settings: FIG. 3, 15 minute session, 30 minutes after administration
Experimental: Open field tests were used as a measure of the spontaneous activity of laboratory rats, in order to measure the anxiolytic effects of melatonin, valerian and a combination of these two substances. Rats were placed in a behavioral room one hour before testing procedures, for purpose of habituation. Activity was tested in open boxes (open-fields: 80 cm wide, 80 cm large, 60 cm high) made of transparent Plexiglas. Animals were individually placed in the open-fields for 15 minute sessions. The following parameters were recorded: Indices of motor exploratory activity: the distance traveled, mobility time, Open Field spontaneous activity is performed on the testing day, 30 minutes after the administration of a test substance (melatonin, valerian, a combination of the two, or vehicle). • Indices of habituation: distance traveled. • During the last 5 minute period in percent of the first as last 5 minute periods. • Indices of anxiety: • Percentage of distance traveled in the central zone of the open-field. • Percentage of time spent in the central zone of the open-field.

RAW 264.7 cells = assay: Nitric oxide (NO) release from LPS-activated RAW 264.7 cells, Griess Reagent System; type: cell-based, murine; settings: for inhibition of NO production when compared with the LPS-stimulated baseline cells: 1.3 μM valerenic acid
Experimental: The objective of the studies reported in working examples 1-5 hereinbelow was to evaluate the anti-inflammatory properties of Melatonin, carnosic acid (Rosemary extract), Valerenic acid and combinations thereof on a cell line derived from murine macrophages (RAW 264.7 cells) activated by lipopolysaccharide (LPS).
10^5 RAW 264.7 cells were seeded in 96-well plates in a medium containing 1% FBS, 1% Glutamine and 1% Pen/strep in DMEM.
For dose response assays, cells were treated with 2-fold concentrations of Melatonin (starting from 15.6 μM up to 1000 μM LOT # XPS150311, Yes Pharma), Rosemary extract (0.1, 0.2, 0.4, 1, 2, 4, or 10 μM, Product #302659, Batch # LAB.16-659001, Vitiva) or 10% Valerenic acid (starting from 1.56 mg/ml up to 100 mg/ml, Batch # IWTC/5949/15001, Indo World Trading Corporation) for 6 hours. Then, the test solutions were removed and the cells were induced with lipopolysaccharide (LPS) (5 ng/ml). In addition, positive control cells were treated with 10 μM dexamethasone. Nitric oxide (NO) release was measured after incubation at 37° C., 5% CO2 using a Griess Reagent System. The method is based on the chemical diazotization reaction that was originally described by Griess in 1879, which uses sulfanilamide and N-1-napthylethylenediamine dihydrochloride (NED) under acidic (phosphoric acid) conditions. This system detects NO2^− in a variety of biological and experimental liquid matrices such as tissue culture medium that was tested in this study.
For combination assays, cells were treated with various concentrations of Melatonin, Rosemary extract (containing 25% carnosic acid) and 10% Valerenic acid, at the final concentration indicated in each experiment, hereinbelow, for 22 hours together with LPS induction (5 ng/ml). […] In addition, positive control cells were treated with 10 μM dexamethasone. Nitric oxide (NO) release was tested after incubation at 37° C., 5% CO2 using the Griess Reagent System.

rats = assay: Open field center time, base-line and caffeine-relaxed rats; type: in vivo, rat; settings: FIG. 4; caffeine-relaxed rats
Experimental: As in Example 3, above, open field tests were used to measure the anxiolytic effects of melatonin, valerian and a combination of these two substances. However, in some of the rats in the present study, the effect of the test substances was measured in rats which had also received caffeine. Thus, while the study reported in Example 3 provided insights into the effect of melatonin and valerian on base-line anxiety, the results obtained in this study relate to the effect of these substances on both base-line and caffeine-induced (“caffeine-relaxed”) subjects. The same open-field method was used as in Example 3. However, in this study, the parameter that was measured was the “center time” that is, the time that the rats spend in the center of tested arena. The center time was used as an index for the anxiolytic effect of the test substances in both “base-line” and “caffeine-relaxed” rats.

[1] = Example 1, FIG. 1, tested separately: 0.5 μM Melatonin, 0.7 μM carnosic acid, 22 hours together with 5 ng/ml LPS
[2] = Example 2, tested separately: 0.05 μM Melatonin, 0.07 μM carnosic acid, 5 ng/ml LPS

Structure (SMILES) | mobility time in comparison to the vehicle control (laboratory rats) | inhibition of NO production when compared with the LPS-stimulated baseline cells (RAW 264.7 cells; [1]) | inhibition of NO production when compared with the LPS-stimulated baseline cells (RAW 264.7 cells; [2]) | caffeine induced center motility (rats) | NO production by the cultured cells (RAW 264.7 cells; Example 1, FIG. 1 column 2, positive control 10 μM dexamethasone, 5 ng/ml LPS, LPS-stimulated untreated cells 40 μM)
COc1ccc2[nH]cc(CCNC(C)=O)c2c1 [Melatonin, N-acetyl-5-methoxytryptamine] | increased the mobility time | none of the following individual components produced any significant inhibition | none of the following individual components produced any significant inhibition | only valerian (both when used separately and when combined with melatonin) affected caffeine induced center motility | –
CC(C)c1cc2c(c(O)c1O)[C@@]1(C(=O)O)CCCC(C)(C)[C@@H]1CC2 [carnosic acid] | – | none of the following individual components produced any significant inhibition | none of the following individual components produced any significant inhibition | – | –
C[C@@H]1C[C@H]2[C@@H]3CCC4=CC(=O)C=C[C@]4(C)[C@@]3(F)[C@@H](O)C[C@]2(C)[C@@]1(O)C(=O)CO [dexamethasone] | – | – | – | – | 30 µM
CC1=C2[C@H](/C=C(\C)C(=O)O)CC[C@@H](C)[C@H]2CC1 [valerenic acid] | – | none of the following individual components produced any significant inhibition | none of the following individual components produced any significant inhibition | – | –
